Results reported in patent publication US20060030616A1, “Anhydride modified cantharidin analogues useful in the treatment of cancer” (priority 1998, published 2006).
Where two headings read alike, the source gives them in different places.

Key:
143B cells = experiment: MTT cytotoxicity assay, 72 h; format: cell-based, human; settings: p53 mt, read-out: IC50 (mean ± SE) after 72 h continuous exposure
Protocol: (§1) Cells in a subconfluent phase are transferred to 96-well microtitre plates. L1210 cells are plated at a density of 1000 cells/well in 100 μl medium, while all other cell lines are plated at a density of 2000-25000 cells/well. The cells are left for 24 h prior to treatment to ensure exponential growth has been achieved, 24 h after plating (day 0), 100 μl of phosphatase inhibitor is added to each well, control wells received 100 μl of medium only. Drug exposure time is 72 h (day 3). The effect of phosphatase inhibition is tested in triplicate over a concentration range of […]−1×10^−8 M. Growth inhibitory effects are evaluated using the MTT assay and absorbance read at […]. The IC50 is the drug concentration at which cell growth is 50% inhibited based on the difference of optical density on day 0 and day 3 of drug exposure. Cytotoxicity is evaluated using a spectrophotometric assay which determines the percentage of cell growth following exposure of the cells to various concentrations of the phosphatase inhibitors for a period of 72 hours. The subsequent dose response curve is used to calculate IC50 values (the drug concentration at which cell growth is 50% inhibited).
(§2) Anti-cancer screening of the protein phosphatase inhibitors is assessed using the MTT assay. This assay determines cell viability by the ability of mitochondrial dehydrogenase to produce formazan crystals from 3-(4,5-dimethylthiazol-2-yl)-2,5-diphenyltetrazolium bromide. The viable cell number/well is directly proportional to the production of formazan, which following solubilization, can be measured spectrophotometrically (540 nm). This technique is also used by the National Cancer Institute to screen for new anticancer agents.
(§3) As described herein a number of cantharidin analogues have been synthesised and tested for their anticancer activity in nine cancer cell lines using the MTT assay after 72 h exposure. These new analogues are shown in FIG. 2 and have been designated MK-1 through to MK-9.

ADDP cells = experiment: MTT cytotoxicity assay, 72 h; format: cell-based, human; settings: p53 mt, read-out: IC50 (mean ± SE) after 72 h continuous exposure
Protocol: as §1, §2, §3

HCT116 cells = experiment: MTT cytotoxicity assay, 72 h; format: cell-based, human; settings: HCT116, p53 wt, read-out: IC50 (mean ± SE) after 72 h continuous exposure
Protocol: as §1, §2, §3

HL60 cells = experiment: MTT cytotoxicity assay, 72 h; format: cell-based, human; settings: HL60, p53 nul, read-out: IC50 (mean ± SE) after 72 h continuous exposure
Protocol: as §1, §2, §3

HT29 cells [1] = experiment: MTT cytotoxicity assay, 72 h; format: cell-based, human; settings: HT29, p53 mt, read-out: IC50 (mean ± SE) after 72 h continuous exposure
Protocol: as §1, §2, §3

SW480 cells = experiment: MTT cytotoxicity assay, 72 h; format: cell-based, human; settings: SW480, p53 mt, read-out: IC50 (mean ± SE) after 72 h continuous exposure
Protocol: as §1, §2, §3

WiDr cells = experiment: MTT cytotoxicity assay, 72 h; format: cell-based, human; settings: p53 mt, read-out: IC50 (mean ± SE) after 72 h continuous exposure
Protocol: as §1, §2, §3

L1210 cells = experiment: Checkpoint abrogation after 6 Gy radiation, flow cytometry; format: cell-based, murine; settings: 12 h after drug; for Cell Cycle Distribution, G1 / Cell Cycle Distribution, G2 + M / Cell Cycle Distribution, S / Cell Cycle Distribution, sub G1 / Checkpoint remark: 18 h after 6Gy; for Checkpoint abrogation: L1210, 6 Gy
Protocol: (§4) The cells are fixed in 70% ethanol and stored at −20° C. until analysis is performed (1-2 weeks). After fixing, the cells are pelleted and incubated in PBS containing propidium iodide ([…]) and RNase A (200 mg/ml) for at least 30 min at room temperature. The samples (2×10^4 events) are analysed using a Becton Dickson FACScan, fluorescence is collected in fluorescence detector 2 (FL2), filter 575/30 nm band pass. Cell cycle distribution is assessed using Cell Quest software (Becton Dickson).
(§5) The ability of the protein phosphatase inhibitors to abrogate the G1 or G2 checkpoint of the cell cycle may be determined by cell cycle analysis using flow cytometry. Briefly, asynchronous cell cultures are harvested 18 h after 6 Gy irradiation and/or 12 h incubation with the protein phosphatase inhibitor. Depending upon the p53 status of the cell line, radiation treatment alone will induce arrest in either G1 and/or G2 phase of the cell cycle.
(§6) If the protein phosphatase inhibitor abrogates the G2 checkpoint then the cells will not arrest in the G2 phase of the cell cycle and the cells will continue through the cell cycle and accumulate in the G1 phase of the cell cycle only. Similarily if the protein phosphatase inhibitors abrogates the G1 checkpoint then the cells will not arrest in the G1 phase of the cell cycle and accumulate in the G2 phase of the cell cycle only. Cell cycle analysis using propidium iodide labelling of DNA has been used extensively in our laboratory to assess the effect of specific anticancer agents that induce S-phase cell cycle arrest and apoptotic cell death (Sakoff, Ackland and Stewart, 1998). Experiments were performed on a Becton Dickinson FACScan and using Cell Quest software.
(§7) The cells were treated with 6 Gy of radiation and then treated with cantharidin 6 h later. The ability to abrogate cell cycle arrest was assessed is 12 h after the addition of the drugs.

HT29 cells [2] = experiment: as above; format: cell-based, human; settings: 12 h after drug; for Cell Cycle Distribution, G1 / Cell Cycle Distribution, G2 + M / Cell Cycle Distribution, S / Cell Cycle Distribution, sub G / Checkpoint remark: 18 h after 6Gy; for Checkpoint abrogation: HT29, 6 Gy
Protocol: as §4, §5, §6, §7

C[C@@]12C(=O)OC(=O)[C@]1(C)[C@H]1CC[C@@H]2O1 [Cantharidin, exo.exo-2.3-dimethyl-7-oxobicyclo[2.2.1]heptane-2,3-dicarboxylic acid anhydride]
IC50 (143B cells; Homo sapiens, 72 h): 10.2 ± 1.2 µM
IC50 (ADDP cells; Homo sapiens, 72 h): 12 ± 0.8 µM
IC50 (HCT116 cells; Homo sapiens, HCT-116, 72 h): 12 µM
IC50 (HL60 cells; Homo sapiens, HL-60, 72 h): 13 µM
IC50 (HT29 cells [1]; Homo sapiens, HT-29, 72 h): 6.4 ± 0.7 µM
IC50 (SW480 cells; Homo sapiens, 72 h): 17.5 µM
IC50 (WiDr cells; Homo sapiens, 72 h): 6.1 ± 0.5 µM
Cell Cycle Distribution, G1 (L1210 cells; L1210, 1 μM): 27.2 percentage of total
Cell Cycle Distribution, G2 + M (L1210 cells; L1210, 1 μM): 37.5 percentage of total
Cell Cycle Distribution, S (L1210 cells; L1210, 1 μM): 25.6 percentage of total
Cell Cycle Distribution, sub G1 (L1210 cells; L1210, 1 μM): 1.6 percentage of total
Cell Cycle Distribution, G1 (L1210 cells; L1210, 5 μM): 25.8 percentage of total
Cell Cycle Distribution, G2 + M (L1210 cells; L1210, 5 μM): 41.5 percentage of total
Cell Cycle Distribution, S (L1210 cells; L1210, 5 μM): 31.9 percentage of total
Cell Cycle Distribution, sub G1 (L1210 cells; L1210, 5 μM): 2.4 percentage of total
Cell Cycle Distribution, G1 (L1210 cells; L1210, 10 μM): 24.9 percentage of total
Cell Cycle Distribution, G2 + M (L1210 cells; L1210, 10 μM): 43.7 percentage of total
Cell Cycle Distribution, S (L1210 cells; L1210, 10 μM): 29.4 percentage of total
Cell Cycle Distribution, sub G1 (L1210 cells; L1210, 10 μM): 3.4 percentage of total
Cell Cycle Distribution, G1 (L1210 cells; L1210, 50 μM): 4.1 percentage of total
Cell Cycle Distribution, G2 + M (L1210 cells; L1210, 50 μM): 77.4 percentage of total
Cell Cycle Distribution, S (L1210 cells; L1210, 50 μM): 15.6 percentage of total
Cell Cycle Distribution, sub G1 (L1210 cells; L1210, 50 μM): 4.9 percentage of total
Checkpoint remark (L1210 cells; L1210, 50 μM): G1 abrogation
Checkpoint abrogation (L1210 cells): abrogated radiation induced G1 arrest
Cell Cycle Distribution, G1 (HT29 cells [2]; HT29, 1 μM): 35.2 percentage of total
Cell Cycle Distribution, G2 + M (HT29 cells [2]; HT29, 1 μM): 38.2 percentage of total
Cell Cycle Distribution, S (HT29 cells [2]; HT29, 1 μM): 10.6 percentage of total
Cell Cycle Distribution, sub G (HT29 cells [2]; HT29, 1 μM): 16.6 percentage of total
Cell Cycle Distribution, G1 (HT29 cells [2]; HT29, 5 μM): 38.6 percentage of total
Cell Cycle Distribution, G2 + M (HT29 cells [2]; HT29, 5 μM): 46.3 percentage of total
Cell Cycle Distribution, S (HT29 cells [2]; HT29, 5 μM): 10.6 percentage of total
Cell Cycle Distribution, sub G (HT29 cells [2]; HT29, 5 μM): 5.3 percentage of total
Cell Cycle Distribution, G1 (HT29 cells [2]; HT29, 10 μM): 21.1 percentage of total
Cell Cycle Distribution, G2 + M (HT29 cells [2]; HT29, 10 μM): 60.8 percentage of total
Cell Cycle Distribution, S (HT29 cells [2]; HT29, 10 μM): 12.3 percentage of total
Cell Cycle Distribution, sub G (HT29 cells [2]; HT29, 10 μM): 6.4 percentage of total
Cell Cycle Distribution, G1 (HT29 cells [2]; HT29, 50 μM): 23.0 percentage of total
Cell Cycle Distribution, G2 + M (HT29 cells [2]; HT29, 50 μM): 43.1 percentage of total
Cell Cycle Distribution, S (HT29 cells [2]; HT29, 50 μM): 20.7 percentage of total
Cell Cycle Distribution, sub G (HT29 cells [2]; HT29, 50 μM): 14.7 percentage of total
Checkpoint remark (HT29 cells [2]; HT29, 50 μM): G1 abrogation
Checkpoint abrogation (HT29 cells [2]): abrogated radiation induced G1 arrest

O=C1OC(=O)C2C3C=CC(O3)C12 (stereo not drawn) [MK-2]
IC50 (143B cells): 248 ± 29 µM
IC50 (ADDP cells): 183 ± 17 µM
IC50 (HCT116 cells): 160 ± 10 µM
IC50 (HL60 cells): 177 ± 3 µM
IC50 (HT29 cells [1]): 183 ± 20 µM
IC50 (SW480 cells): 155 ± 9 µM
IC50 (WiDr cells): 198 ± 53 µM
Cell Cycle Distribution, G1 (L1210 cells; L1210, 50 μM): 19.0 percentage of total
Cell Cycle Distribution, G2 + M (L1210 cells; L1210, 50 μM): 50.1 percentage of total
Cell Cycle Distribution, S (L1210 cells; L1210, 50 μM): 27.8 percentage of total
Cell Cycle Distribution, sub G1 (L1210 cells; L1210, 50 μM): 4.0 percentage of total
Cell Cycle Distribution, G1 (L1210 cells; L1210, 100 μM): 18.4 percentage of total
Cell Cycle Distribution, G2 + M (L1210 cells; L1210, 100 μM): 55.8 percentage of total
Cell Cycle Distribution, S (L1210 cells; L1210, 100 μM): 23.0 percentage of total
Cell Cycle Distribution, sub G1 (L1210 cells; L1210, 100 μM): 3.5 percentage of total
Cell Cycle Distribution, G1 (L1210 cells; L1210, 250 μM): 11.2 percentage of total
Cell Cycle Distribution, G2 + M (L1210 cells; L1210, 250 μM): 71.9 percentage of total
Cell Cycle Distribution, S (L1210 cells; L1210, 250 μM): 10.0 percentage of total
Cell Cycle Distribution, sub G1 (L1210 cells; L1210, 250 μM): 6.9 percentage of total
Cell Cycle Distribution, G1 (L1210 cells; L1210, 500 μM): 3.4 percentage of total
Cell Cycle Distribution, G2 + M (L1210 cells; L1210, 500 μM): 88.4 percentage of total
Cell Cycle Distribution, S (L1210 cells; L1210, 500 μM): 2.9 percentage of total
Cell Cycle Distribution, sub G1 (L1210 cells; L1210, 500 μM): 5.4 percentage of total
Checkpoint remark (L1210 cells; L1210, 500 μM): G1 abrogation
Checkpoint abrogation (L1210 cells): abrogated radiation induced G1 arrest
Cell Cycle Distribution, G1 (HT29 cells [2]; HT29, 5 μM): 31.8 percentage of total
Cell Cycle Distribution, G2 + M (HT29 cells [2]; HT29, 5 μM): 41.3 percentage of total
Cell Cycle Distribution, S (HT29 cells [2]; HT29, 5 μM): 8.7 percentage of total
Cell Cycle Distribution, sub G (HT29 cells [2]; HT29, 5 μM): 17.3 percentage of total
Cell Cycle Distribution, G1 (HT29 cells [2]; HT29, 50 μM): 35.4 percentage of total
Cell Cycle Distribution, G2 + M (HT29 cells [2]; HT29, 50 μM): 44.7 percentage of total
Cell Cycle Distribution, S (HT29 cells [2]; HT29, 50 μM): 8.8 percentage of total
Cell Cycle Distribution, sub G (HT29 cells [2]; HT29, 50 μM): 10.3 percentage of total
Cell Cycle Distribution, G1 (HT29 cells [2]; HT29, 100 μM): 40.6 percentage of total
Cell Cycle Distribution, G2 + M (HT29 cells [2]; HT29, 100 μM): 45.9 percentage of total
Cell Cycle Distribution, S (HT29 cells [2]; HT29, 100 μM): 9.0 percentage of total
Cell Cycle Distribution, sub G (HT29 cells [2]; HT29, 100 μM): 3.5 percentage of total
Cell Cycle Distribution, G1 (HT29 cells [2]; HT29, 250 μM): 24.9 percentage of total
Cell Cycle Distribution, G2 + M (HT29 cells [2]; HT29, 250 μM): 59.4 percentage of total
Cell Cycle Distribution, S (HT29 cells [2]; HT29, 250 μM): 12.3 percentage of total
Cell Cycle Distribution, sub G (HT29 cells [2]; HT29, 250 μM): 2.7 percentage of total
Cell Cycle Distribution, G1 (HT29 cells [2]; HT29, 500 μM): 24.1 percentage of total
Cell Cycle Distribution, G2 + M (HT29 cells [2]; HT29, 500 μM): 45.2 percentage of total
Cell Cycle Distribution, S (HT29 cells [2]; HT29, 500 μM): 20.4 percentage of total
Cell Cycle Distribution, sub G (HT29 cells [2]; HT29, 500 μM): 8.8 percentage of total
Checkpoint remark (HT29 cells [2]; HT29, 500 μM): G1 abrogation
Checkpoint abrogation (HT29 cells [2]): abrogated radiation induced G1 arrest
